Experimental data as given in patent publication EP4703356A1, “SALT OF PIPERIDYLINDOLE COMPOUND AND PREPARATION METHOD THEREFOR” (Shanghai Hansoh Biomedical Co., Ltd., priority 2023, dated 2024).
Where two headings read alike, the source gives them in different places.

What was measured:
[1] = biological target: T1, Recombinant human factor B catalytic domain (Homo sapiens, UniProt P00751); assay: TR-FRET factor B binding assay
[2] = biological target: T1, Recombinant human factor B catalytic domain; assay: Target residence time of factor B inhibitors by surface plasmon resonance (SPR); settings: for t1/2: binding half-life, t1/2 = ln2/koff; for residence time: read-out: Residence time (s)
[3] = tested on: alternative complement pathway (AP); assay: Assessment of PD inhibition in rat plasma (ex vivo AP ELISA, MAC deposition on LPS, serum after oral dosing); design: species or system Sprague-Dawley rats; settings: over 24 hours; for inhibition at 2 mg/kg: Rattus norvegicus, rats, oral 2 mg/kg, AP deposition in 50% serum, read-out: Serum PD inhibition (%) over 24 hours (2 mpk)
Method: Male Sprague-Dawley rats (n = 3) were orally administered with vehicles (0.5% (w/v) methylcellulose, 0.5% (v/v) Tween 80), compound Iptacopan, or example compound formulations (in 0.5% (w/v) methylcellulose, 0.5% (v/v) Tween 80) at a dose of 2 mg/kg. Rat serum samples were collected at 0.25, 0.5, 1, 2, 4, 6, 8, and 24 hours post-dosing, and stored at -80°C. […] The coated plates were washed with GVB buffer (Complement technology) containing 5 mM MgCl2 and 10 mM EGTA (blocking both classical and lectin pathways). The collected serum samples were diluted by adding an equal volume of GVB buffer containing 10 mM MgCl2 and 20 mM EGTA. For negative controls, serum was diluted with GVB buffer containing 40 mM EDTA (blocking all complement pathways). Aliquots (50 ul) of 50% serum samples were added to the LPS-coated wells. The reaction plate was incubated at 37°C for 20 minutes (rat serum). […] Baseline (EDTA-treated serum) and maximum signal (EGTA-treated serum from vehicle-treated rats) were used to generate a percent inhibition value for each well.
Each data point in FIG. 37 represents the mean AP activity in rat serum. […] Table 5: Rat 24-hour PD study results

[4] = tested on: AP complement activation; assay: In vivo assessment of AP complement functional activity in mice (LPS-induced, plasma C3b/iC3b/C3c ELISA); design: species or system C57BL/6 mice; settings: LPS 2.5 mg/kg i.p. 7.5 hours before end, compound 20 mg/kg oral 20 hours before end
Method: 20 hours before the end of the study, female C57BL/6 mice were orally gavaged with the formulation of compound of Example 3 (20 mg/kg, 0.5% (w/v) methylcellulose, 0.5% (v/v) Tween 80). To activate the complement pathway, lipopolysaccharide (LPS) from Salmonella typhimurium (Sigma) was injected intraperitoneally (2.5 mg/kg) 7.5 hours before the end of the study. Control mice received intraperitoneal injections of normal saline and oral gavage administration of vehicles. At the end of the study, plasma samples were collected from the mice. AP complement activation was assessed by measuring plasma C3 cleavage products, C3b/iC3b/C3c, using an ELISA method with rat anti-mouse C3b/iC3b/C3c monoclonal antibodies (clone 2/11, Hycult Biotech, 0.1 µg/well), and a goat anti-rat IgG (whole molecule)-peroxidase (Sigma) diluted in TBST (TBS/0.05% Tween 20). Table 4: Plasma C3b/iC3b/C3c following treatment

[5] = Pharmacokinetic study in rat eyes; format: in vivo, brown Norway rats; settings: Brown Norway, 2 mg/kg, 2 mpk PO; for half-life: in vivo
Method: Three-month-old brown Norway rats were orally gavaged with the example compound as a suspension in 2 equivalents of 1 N HCl + 30% PEG300 + 50% (20% Cremophor EL aqueous solution). At 0.25, 0.5, 1, 6, and 24 hours post-dosing, ocular tissues and plasma were collected from both eyes of the rats at respective time points. The ocular tissues collected comprised retina and the posterior eyecup (RPE/choroid and posterior sclera). Tissues were diluted with phosphate-buffered saline containing 10% acetonitrile, followed by homogenization and centrifugation prior to analysis. At each time point, test article concentrations in plasma and eye homogenate supernatants were measured in four individual retinal samples, four individual posterior eyecup samples and two individual plasma samples by using HPLC-MS/MS. Chromatographic separation was performed on a Waters BEH C18 column (2.1 × 50 mm, 1.7 µm) (MAC-MOD Analytical, Chadds-Ford, PA) with a gradient elution method using water and acetonitrile, both containing 0.025% formic acid-1 M NH4OAc. Mass spectrometry measurements in positive electrospray ionization were performed to quantify mass transitions using [M+H]+ as the precursor ion on an API6500 triple quadrupole mass spectrograph (Sciex, Framingham, MA). The relevant pharmacokinetic parameters were estimated using the non-compartmental method in WinNonlin (Enterprise, version 8.2). Table 3: Rat PK study results (2 mpk PO)

[6] = Salt form screening (natural evaporation and reactive crystallisation); format: physicochemical; design: key to PLM/XRPD or slurry solvent: "√" indicates the presence of birefringence phenomenon; "×" indicates the absence of birefringence phenomenon; settings: for PLM/XRPD or slurry solvent: 1:1; for Characterization result: reactive crystallisation, Ethyl acetate, 1:1, stirred room temperature about 24 hours
Method: Salt form screening experiments were conducted via the solvent evaporation method. About 10 mg of the free base of Example 3 was weighed into a 2 mL glass vial and dissolved in 100 µL of an organic solvent. A solution of the counterion acid in methanol was added dropwise at a molar ratio of 1:1. The resulting clear solution was allowed to evaporate at room temperature. The obtained solid was first characterised by PLM. If no birefringence was observed, the solids were slurried by adding a solvent. If birefringence was observed, the solids were further characterised by XRPD. Compounds with high crystallinity were selected for characterization by DSC and TGA.
Approximately 10 mg of the free base compound of Example 3 was weighed into a 2 mL glass vial and dissolved in 100 µL of an organic solvent. 22 µL of a solution of the acid in ethyl acetate was slowly added dropwise at a molar ratio of 1 : 1 under stirring. The resulting clear solution was stirred at room temperature for approximately 24 hours. The resulting solid was dried in vacuo at 40°C and characterised by XRPD, DSC and TGA.

[7] = plasma, read-out: Plasma AUC0-last
[8] = retina, read-out: Retina AUC0-last

T1 sequence (P00751 470-764): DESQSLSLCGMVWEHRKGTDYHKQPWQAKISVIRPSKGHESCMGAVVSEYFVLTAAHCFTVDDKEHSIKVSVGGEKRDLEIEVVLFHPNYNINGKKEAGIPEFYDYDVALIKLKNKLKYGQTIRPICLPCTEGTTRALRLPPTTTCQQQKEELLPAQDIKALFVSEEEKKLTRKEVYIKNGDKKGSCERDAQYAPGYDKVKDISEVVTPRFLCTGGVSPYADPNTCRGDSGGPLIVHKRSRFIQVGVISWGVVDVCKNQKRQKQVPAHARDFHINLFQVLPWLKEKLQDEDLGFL

COc1cc(C)c2[nH]ccc2c1CN1CCC2(C[C@H]1c1ccc(C(=O)O)cc1C(F)F)CC(F)(F)C2 [Example 1]
IC50 [1]: < 2 nM | Kd [2]: 0.77 nM | t1/2 [2]: 0.8911 h | residence time [2]: 4630 s

Cc1cc(C2CC2)c(CN2CCC3(C[C@H]2c2ccc(C(=O)O)cc2)CC(F)(F)C3)c2cc[nH]c12 [Example 2]
IC50 [1]: < 2 nM | Kd [2]: 0.38 nM | t1/2 [2]: 1.214 h | residence time [2]: 6310 s

COc1cc(C)c2[nH]ccc2c1CN1CCC2(C[C@H]1c1ccc(C(=O)O)cc1C)CC(F)(F)C2 [Example 3, (S)-4-(2,2-difluoro-7-((5-methoxy-7-methyl-1H-indol-4-yl)methyl)-7-azaspiro[3.5]nonan-6-yl)-3-methylbenzoic acid]
IC50 [1]: < 2 nM | inhibitory effects in the ex vivo PD assay in rats ([3]; 2 mg/kg oral, 50% serum): sustained inhibitory effects | inhibition at 2 mg/kg [3]: 57.5% | Plasma C3b/iC3b/C3c (1 x 10^6) [4]: 210.25 ^ns 1 x 10^6 | Kd [2]: 0.17 nM | t1/2 [2]: 1.188 h | residence time [2]: 6170 s | AUC(0-t) [5, 7]: 12.7 µM·h | AUC(0-t) [5, 8]: 0.796 µM·h | half-life [5]: 1330 min | Post-slurry PLM/XRPD ([6]; natural evaporation, Acetone, Hydrobromic acid (22 µL), slurried in ethyl acetate): √, crystal form A of hydrobromide | Post-slurry PLM/XRPD ([6]; natural evaporation, Acetone, Hydrochloric acid (22 µL), slurried in ethyl acetate): √, high crystallinity, crystal form A of hydrochloride | Post-slurry PLM/XRPD ([6]; natural evaporation, Acetone, Methanesulphonic acid (22 µL), slurried in ethyl acetate): √, crystal form A of methanesulfonat e | Post-slurry PLM/XRPD ([6]; natural evaporation, Acetone, p-Toluenesulphonic acid (22 µL), slurried in ethyl acetate): √, crystal form A of p-toluenesulfonate | Post-slurry PLM/XRPD ([6]; natural evaporation, Methanol, Hydrochloric acid (22 µL), slurried in 2-methyltetrahydrofuran): √, crystal form B of hydrochloride | PLM/XRPD or slurry solvent ([6]; natural evaporation, solvent Acetone, Hydrobromic acid (22 µL)): ×, ethyl acetate | PLM/XRPD or slurry solvent ([6]; natural evaporation, solvent Acetone, Hydrochloric acid (22 µL)): ×, ethyl acetate | PLM/XRPD or slurry solvent ([6]; natural evaporation, solvent Acetone, Methanesulphonic acid (22 µL)): ×, ethyl acetate | PLM/XRPD or slurry solvent ([6]; natural evaporation, solvent Acetone, p-Toluenesulphonic acid (22 µL)): ×, ethyl acetate | PLM/XRPD or slurry solvent ([6]; natural evaporation, solvent Methanol, Adipic acid (22 µL)): √, crystal form A of adipate | PLM/XRPD or slurry solvent ([6]; natural evaporation, solvent Methanol, Fumaric acid (88 µL)): √, crystal form A of fumarate | PLM/XRPD or slurry solvent ([6]; natural evaporation, solvent Methanol, Hippuric acid (55 µL)): √, crystal form A of hippurate | PLM/XRPD or slurry solvent ([6]; natural evaporation, solvent Methanol, Hydrobromic acid (22 µL)): √, high crystallinity | PLM/XRPD or slurry solvent ([6]; natural evaporation, solvent Methanol, Hydrochloric acid (22 µL)): ×, 2-methyltetrahydrofuran | PLM/XRPD or slurry solvent ([6]; natural evaporation, solvent Methanol, Malonic acid (22 µL)): √, crystal form A of malonate | PLM/XRPD or slurry solvent ([6]; natural evaporation, solvent Methanol, Oxalic acid (22 µL)): √, crystal form A of oxalate | PLM/XRPD or slurry solvent ([6]; natural evaporation, solvent Methanol, Succinic acid (22 µL)): √, crystal form A of succinate | Characterization result ([6]; Hydrobromic acid): Crystal form A of hydrobromide | Characterization result ([6]; Hydrochloric acid): Crystal form A of hydrochloride | Characterization result ([6]; Methanesulphonic acid): Crystal form A of methanesulfonate | PLM/XRPD or slurry solvent ([6]; solvent Ethyl acetate, Hydrobromic acid (22 µL), Clear → Suspension (slurried)): √, crystal form A of hydrobromide | PLM/XRPD or slurry solvent ([6]; solvent Toluene, Hydrobromic acid (22 µL), Clear → Suspension (slurried)): √, crystal form A of hydrobromide

CCO[C@H]1CCN(Cc2c(OC)cc(C)c3[nH]ccc23)[C@H](c2ccc(C(=O)O)cc2)C1 [Iptacopan, reference compound]
inhibition at 2 mg/kg [3]: -3% | AUC(0-t) [5, 7]: 13.5 µM·h | AUC(0-t) [5, 8]: 0.141 µM·h | half-life [5]: 318 min
